Measurements published in ChEMBL document CHEMBL1153901, “Synthesis and antibacterial activity evaluation of metronidazole-triazole conjugates” (Bioorg Med Chem Lett, 2009).
Values after ≈ are worked out from the molar mass of the structure shown. Active and inactive are the calls of the source. The calls are words filed in the database; no cut-off is given here.

Assays:
Assay type in all cases: functional, organism-based
Nakaseomyces glabratus = assay: Antifungal activity against Candida glabrata
Pseudomonas aeruginosa = assay: Antibacterial activity against Pseudomonas aeruginosa after 24 hrs by […] microdilution method
Geotrichum candidum = assay: Antifungal activity against Geotrichum candidum
Escherichia coli = assay: Antibacterial activity against Escherichia coli after 24 hrs by NCCLS microdilution method
Staphylococcus aureus = assay: Antibacterial activity against Staphylococcus aureus after 24 hrs by […] microdilution method
Candida albicans = assay: Antifungal activity against Candida albicans
[1] = tested on: Staphylococcus epidermidis; assay: Antibacterial activity against Staphylococcus epidermidis after 24 hrs by […] microdilution method

| Compound | Activity (Nakaseomyces glabratus) | IC50 (Pseudomonas aeruginosa) | Activity (Geotrichum candidum) | IC50 (Escherichia coli) | IC50 (Staphylococcus aureus) | Activity (Candida albicans) | IC50 [1] |
| --- | --- | --- | --- | --- | --- | --- | --- |
| Cc1ccccc1OCc1cn(CCn2c([N+](=O)[O-])cnc2C)nn1 | inactive | > 500 µg/mL | inactive | 0.028 µg/mL (≈ 0.0818 µM) | > 500 µg/mL | inactive | > 500 µg/mL |
| CCC(=O)OCc1cn(CCn2c([N+](=O)[O-])cnc2C)nn1 |  | > 500 µg/mL |  | > 500 µg/mL | > 500 µg/mL |  | > 500 µg/mL |
| Cc1ncc([N+](=O)[O-])n1CCn1cc(COC2CCCCO2)nn1 (stereo not drawn) |  | > 500 µg/mL |  | > 500 µg/mL | > 500 µg/mL |  | > 500 µg/mL |
| COCc1cn(CCn2c([N+](=O)[O-])cnc2C)nn1 |  | > 500 µg/mL |  | > 500 µg/mL | > 500 µg/mL |  | > 500 µg/mL |
| Cc1ncc([N+](=O)[O-])n1CCn1cc(COc2ccccc2C=O)nn1 |  | > 500 µg/mL |  | > 500 µg/mL | > 500 µg/mL |  | > 500 µg/mL |
| Cc1ncc([N+](=O)[O-])n1CCn1cc(COc2ccccc2[N+](=O)[O-])nn1 |  | > 500 µg/mL |  | > 500 µg/mL | > 500 µg/mL |  | > 500 µg/mL |
| Cc1ncc([N+](=O)[O-])n1CCn1cc(COc2ccc([N+](=O)[O-])cc2)nn1 |  | > 500 µg/mL |  | > 500 µg/mL | > 500 µg/mL |  | > 500 µg/mL |
| Cc1ncc([N+](=O)[O-])n1CCn1cc(COc2ccc(Cl)cc2)nn1 | inactive | 0.02 µg/mL (≈ 0.0551 µM) | inactive | 0.003 µg/mL (≈ 0.00827 µM) | 0.13 µg/mL (≈ 0.358 µM) | inactive | > 500 µg/mL |
| Cc1cccc(OCc2cn(CCn3c([N+](=O)[O-])cnc3C)nn2)c1 | inactive | 0.068 µg/mL (≈ 0.199 µM) | inactive | 0.067 µg/mL (≈ 0.196 µM) | 0.26 µg/mL (≈ 0.759 µM) | inactive | > 500 µg/mL |
| Cc1ccc(OCc2cn(CCn3c([N+](=O)[O-])cnc3C)nn2)cc1 | inactive | 0.03 µg/mL (≈ 0.0876 µM) | inactive | 0.06 µg/mL (≈ 0.175 µM) | 0.13 µg/mL (≈ 0.38 µM) | inactive | > 500 µg/mL |
| Cc1ncc([N+](=O)[O-])n1CCn1cc(CCO)nn1 |  | > 500 µg/mL |  | > 500 µg/mL | > 500 µg/mL |  | > 500 µg/mL |
| Cc1ncc([N+](=O)[O-])n1CCn1cc(-c2cccnc2)nn1 | inactive | > 500 µg/mL | inactive | > 500 µg/mL | 0.31 µg/mL (≈ 1.04 µM) | inactive | > 500 µg/mL |
| Cc1ncc([N+](=O)[O-])n1CCn1cc(COc2ccccc2)nn1 |  | 0.13 µg/mL (≈ 0.396 µM) |  | 0.67 µg/mL (≈ 2.04 µM) | > 500 µg/mL |  | > 500 µg/mL |
| Cc1ncc([N+](=O)[O-])n1CCn1cc(CBr)nn1 |  | > 500 µg/mL |  | > 500 µg/mL | > 500 µg/mL |  | > 500 µg/mL |
| Cc1ncc([N+](=O)[O-])n1CCn1cc(CO)nn1 | inactive | 0.18 µg/mL (≈ 0.714 µM) | inactive | 0.091 µg/mL (≈ 0.361 µM) | 0.35 µg/mL (≈ 1.39 µM) | inactive | 0.35 µg/mL (≈ 1.39 µM) |
| Cc1ncc([N+](=O)[O-])n1CCn1cc(-c2ccccc2)nn1 | inactive | 0.13 µg/mL (≈ 0.436 µM) | inactive | 0.13 µg/mL (≈ 0.436 µM) | > 500 µg/mL | inactive | > 500 µg/mL |
| CC(=O)c1ccc(OCc2cn(CCn3c([N+](=O)[O-])cnc3C)nn2)cc1 |  | > 500 µg/mL |  | > 500 µg/mL | > 500 µg/mL |  | > 500 µg/mL |
| CN(C)[C@@H]1C(O)=C(C(N)=O)C(=O)[C@@]2(O)C(O)=C3C(=O)c4c(O)cccc4[C@@](C)(O)[C@H]3C[C@@H]12 [TETRACYCLINE] |  | 0.06 µg/mL (≈ 0.135 µM) |  | 0.09 µg/mL (≈ 0.203 µM) | 0.12 µg/mL (≈ 0.27 µM) |  | 0.08 µg/mL (≈ 0.18 µM) |
| Cc1ncc([N+](=O)[O-])n1CCn1cc(C2(O)CCCCC2)nn1 | inactive | 0.18 µg/mL (≈ 0.562 µM) | inactive | > 500 µg/mL | > 500 µg/mL | inactive | > 500 µg/mL |
| Cc1ncc([N+](=O)[O-])n1CCn1cc(COc2ccc(C=O)cc2)nn1 | inactive | 0.07 µg/mL (≈ 0.196 µM) | inactive | 0.07 µg/mL (≈ 0.196 µM) | > 500 µg/mL | inactive | > 500 µg/mL |
| Cc1ncc([N+](=O)[O-])n1CCn1cc(COc2ccccc2Cl)nn1 |  | > 500 µg/mL |  | > 500 µg/mL | > 500 µg/mL |  | > 500 µg/mL |
| Cc1ncc([N+](=O)[O-])n1CCn1cc(-c2ccccn2)nn1 | inactive | 0.13 µg/mL (≈ 0.434 µM) | inactive | 0.12 µg/mL (≈ 0.401 µM) | 0.13 µg/mL (≈ 0.434 µM) | inactive | > 500 µg/mL |
